From patent US6444615B1, “Herbicidal imidazolidinetrione and thioxo-imidazolidinediones” (Dow AgroSciences LLC, priority 2000, dated 2002)

Legend:
[1] = test system: Velvetleaf (Abutilon theophrasti); experiment: Herbicidal pre-emergence test, Velvetleaf; type: in vivo; details: 1200 g/ha, scale of 0-100, 0 no activity, 100 total control, about two or four weeks after application
Protocol: (§1) Listed below, a typical planting design for the test, consisting of four monocot weeds, four dicot weeds and one sedge weed. [table] For each compound, evaluation tests were carried out according to the following procedures: For preemergence tests, immediately after planting, the test compound was sprayed directly onto the soil surface. The flats or pots were placed in the greenhouse and then watered. For postemergence tests, seeds were allowed to germinate and grow for 10 to 21 days before application. The test plants were selected for uniformity, size and stage of development. The test plants were then treated with the test compound, returned to the greenhouse and watered. Untreated plants were used as a comparison. The compound to be evaluated was dissolved in an appropriate solvent, usually acetone, or a formulation of the evaluated compounds as described above, was added to the water, and sprayed over the flats or pots using a carrier volume equivalent to 187 or 468 liters per hectare to give a rate of application in grams per hectare (g/ha). About two or four weeks after application of the test compounds, the state of the plant was observed. Each species was evaluated on a scale of 0-100 in which 0 equals no activity and 100 equals total control.

[2] = test system: Nutsedge, (yellow) (Cyperus esculentus); experiment: Herbicidal pre-emergence test, Nutsedge (yellow); type: in vivo; details: 1200 g/ha, scale of 0-100, 0 no activity, 100 total control, about two or four weeks after application
Protocol: as §1

[3] = test system: Hairy Beggarticks (Bidens pilosa); experiment: Herbicidal pre-emergence test, Hairy Beggarticks; type: in vivo; details: 1200 g/ha, scale of 0-100, 0 no activity, 100 total control, about two or four weeks after application
Protocol: as §1

[4] = test system: Perennial Ryegrass (Lolium perenne); experiment: Herbicidal post-emergence test, Perennial Ryegrass; type: in vivo; details: 1200 g/ha, scale of 0-100, 0 no activity, 100 total control, about two or four weeks after application
Protocol: as §1

[5] = test system: Crabgrass (large) (Digitaria sanguinalis); experiment: Herbicidal post-emergence test, Crabgrass (large); type: in vivo; details: 1200 g/ha, scale of 0-100, 0 no activity, 100 total control, about two or four weeks after application
Protocol: as §1

[6] = test system: Nightshade, (black) (Solanum nigrum); experiment: Herbicidal post-emergence test, Nightshade (black); type: in vivo; details: 1200 g/ha, scale of 0-100, 0 no activity, 100 total control, about two or four weeks after application
Protocol: as §1

[7] = test system: Barnyardgrass (Echinochloa crusgalli); experiment: Herbicidal pre-emergence test, Barnyardgrass; type: in vivo; details: 1200 g/ha, scale of 0-100, 0 no activity, 100 total control, about two or four weeks after application
Protocol: as §1

[8] = test system: Foxtail, (green) (Setaria viridis); experiment: Herbicidal pre-emergence test, Foxtail (green); type: in vivo; details: 1200 g/ha, scale of 0-100, 0 no activity, 100 total control, about two or four weeks after application
Protocol: as §1

[9] = test system: Crabgrass (large) (Digitaria sanguinalis); experiment: Herbicidal pre-emergence test, Crabgrass (large); type: in vivo; details: 1200 g/ha, scale of 0-100, 0 no activity, 100 total control, about two or four weeks after application
Protocol: as §1

[10] = test system: Hairy Beggarticks (Bidens pilosa); experiment: Herbicidal post-emergence test, Hairy Beggarticks; type: in vivo; details: 1200 g/ha, scale of 0-100, 0 no activity, 100 total control, about two or four weeks after application
Protocol: as §1

[11] = test system: Nutsedge, (yellow) (Cyperus esculentus); experiment: Herbicidal post-emergence test, Nutsedge (yellow); type: in vivo; details: 1200 g/ha, scale of 0-100, 0 no activity, 100 total control, about two or four weeks after application
Protocol: as §1

[12] = test system: Smartweed, (pale) (Polygonum lapathifolium); experiment: Herbicidal pre-emergence test, Smartweed (pale); type: in vivo; details: 1200 g/ha, scale of 0-100, 0 no activity, 100 total control, about two or four weeks after application
Protocol: as §1

[13] = test system: Foxtail, (green) (Setaria viridis); experiment: Herbicidal post-emergence test, Foxtail (green); type: in vivo; details: 1200 g/ha, scale of 0-100, 0 no activity, 100 total control, about two or four weeks after application
Protocol: as §1

[14] = test system: Velvetleaf (Abutilon theophrasti); experiment: Herbicidal post-emergence test, Velvetleaf; type: in vivo; details: 1200 g/ha, scale of 0-100, 0 no activity, 100 total control, about two or four weeks after application
Protocol: as §1

[15] = test system: Perennial Ryegrass (Lolium perenne); experiment: Herbicidal pre-emergence test, Perennial Ryegrass; type: in vivo; details: 1200 g/ha, scale of 0-100, 0 no activity, 100 total control, about two or four weeks after application
Protocol: as §1

[16] = test system: Nightshade, (black) (Solanum nigrum); experiment: Herbicidal pre-emergence test, Nightshade (black); type: in vivo; details: 1200 g/ha, scale of 0-100, 0 no activity, 100 total control, about two or four weeks after application
Protocol: as §1

[17] = test system: Smartweed, (pale) (Polygonum lapathifolium); experiment: Herbicidal post-emergence test, Smartweed (pale); type: in vivo; details: 1200 g/ha, scale of 0-100, 0 no activity, 100 total control, about two or four weeks after application
Protocol: as §1

[18] = test system: Barnyardgrass (Echinochloa crusgalli); experiment: Herbicidal post-emergence test, Barnyardgrass; type: in vivo; details: 1200 g/ha, scale of 0-100, 0 no activity, 100 total control, about two or four weeks after application
Protocol: as §1

Compound | melting point [°C] | Herbicidal Activity VEL (pre-emergence) [1] | Herbicidal Activity NUT (pre-emergence) [2] | Herbicidal Activity BID (pre-emergence) [3] | Herbicidal Activity RYE (post-emergence) [4] | Herbicidal Activity CRB (post-emergence) [5] | Herbicidal Activity NS (post-emergence) [6] | Herbicidal Activity BYG (pre-emergence) [7] | Herbicidal Activity FOX (pre-emergence) [8] | Herbicidal Activity CRB (pre-emergence) [9] | Herbicidal Activity BID (post-emergence) [10] | Herbicidal Activity NUT (post-emergence) [11] | Herbicidal Activity SMT (pre-emergence) [12] | Herbicidal Activity FOX (post-emergence) [13] | Herbicidal Activity VEL (post-emergence) [14] | Herbicidal Activity RYE (pre-emergence) [15] | Herbicidal Activity NS (pre-emergence) [16] | Herbicidal Activity SMT (post-emergence) [17] | Herbicidal Activity BYG (post-emergence) [18]
O=C1NC(=O)N(C2(OC3CC(F)CC3Cl)C=CC=CC2)C1=O (stereo not shown) [Compound 2, 1-(2-fluoro-4-chloro-5-cyclopentyloxy)phenyl-2,4,5-imidazolidinetrione] | 130 to 140 | – | – | – | – | – | – | – | – | – | – | – | – | – | – | – | – | – | –
CCOC(=O)COc1cc(N2C(=O)C(=O)N(C)C2=O)c(F)cc1Cl [Compound 17] | – | 0/0 | 0/0 | 0/0 | 0 | 0/0 | 0 | 0/0 | 0/0 | 0/0 | 0/0 | 0/0 | 30 | 0/0 | 0/0 | 30 | 30 | 0 | 0/0
COC(=O)c1cc(N2C(=O)C(=O)N(C(C)C)C2=O)c(F)cc1Cl [Compound 18, 1-(2-fluoro-4-chloro-5-methoxycarbonylphenyl)-3-isopropyl-2,4,5-imidazolidinetrione] | – | 0 | 0/0 | 100/100 | 0/0 | 30 | 95 | 0 | 0 | 0 | 100/100 | 0/0 | 40 | 60 | 95 | 0/0 | 100 | 95 | 40
C#CCN1C(=O)COc2cc(F)c(N3C(=O)C(=O)N(C)C3=O)cc21 [Compound 22] | – | 40 | 0 | 95 | 30 | 40 | 100 | 40 | 100 | 100 | 80 | 60 | 85 | 80 | 100 | 0 | 95 | 90 | 60
C#CCN1C(=O)COc2cc(F)c(N3C(=O)C(=O)N(CCC)C3=O)cc21 [Compound 23, 1-n-propyl-3-[7-fluoro-4-(2-propynyl)-2ZH-1,4-benzoxazin-3(4H)-one-6-]-2,4,5-imidazlidinetrione] | – | 100/100 | 95 | 100 | 0 | 0 | 100/100 | 100 | 100 | 100 | 95 | 40 | 100 | 60 | 100/100 | 90 | 100/100 | 95 | 60
C#CCN1C(=O)COc2cc(F)c(N3C(=O)C(=O)N(CC(F)(F)F)C3=O)cc21 [Compound 24] | – | 0 | 0/0 | 0 | 0/0 | 0/0 | 60 | 0/0 | 0/0 | 0/0 | 40 | 0/0 | 0 | 0/0 | 60 | 0/0 | 0 | 40 | 0/0
C#CCN1C(=O)COc2cc(F)c(N3C(=O)C(=O)N(CCC)C3=S)cc21 [Compound 25] | – | 100/100 | 80 | 100/100 | 0 | 30 | 100/100 | 100 | 100 | 100 | 100/100 | 40 | 100/100 | 60 | 100/100 | 85 | 100/100 | 100/100 | 30
CCCN1C(=O)C(=O)N(c2cc(F)c(F)cc2F)C1=O [Compound C1, reference compound] | – | 0 | 0/0 | 0 | 0/0 | 0/0 | 80 | 0/0 | 0/0 | 0/0 | 40 | 0/0 | 0 | 0/0 | 60 | 0/0 | 0 | 60 | 0/0
